From patent US6274559A, “Liver protection or treatment agents comprising asiatic acid derivatives as the active component” (Dong Kook Pharmaceutical Co., Ltd., priority 1997, dated 2001)

How the values were obtained:
[1] = test system: liver cell (carbon tetrachloride-induced toxicity); test: Protection effect against carbon tetrachloride-induced toxicity of liver cell (GPT activity, relative protection); type: cell-based, male Wister rats; conditions: 10 mM carbon tetrachloride, 1.5 h; for Relative liver cell protection at 5 µg/mL / Relative liver cell protection at 50 µg/mL: Rattus norvegicus
Experimental: (§1) As experimental animals, male Wister rats weighing between 150~200 g were used. All rats were fasted during 18~24 h, and then the isolation of liver cells was performed by using the two-step collagenase flow-through method [D. M. Crisp and C. I. Pogson, Biochem., 126, 1009 (1972)], which is a form that the Berry & Friend method [M. N. Berry and D. S. Friend, J. Cell, Biol., 43, 5006 (1969)] is a little modified.
(§2) These liver cells getting into toxicity induced by said methods were incubated separately in the incubation mediums containing said compounds of 5 μg/ml and 50 μg/ml. Then, withdrawing the incubation medium, the activity of glutamic pyruvic transaminase (GPT) was determined by the Reitman-Frankel method [S. Reitman and S. Frankel, Am, J. Cli. Pathol., 28, 56 (1957)]. The GPT value of healthy liver cell was defined as 100%, and that of liver cell getting into toxicity induced by said methods was defined as 0%. At the basis of said definition, the GPT values of liver cells recovered from galactosamine-induced toxicity by the compounds were converted into relative protections (%) to show the protection effect of liver cell against the toxicity by the compounds.
To investigate the protection effect of the compounds of the formula 1 of this invention against carbon tetrachloride-induced toxicity of liver cell, the following experiment was performed.
(§3) The experiment was performed in the same manner as in Experimental example 1, except that carbon tetrachloride was used by following method to induce liver cells to get into the toxicity.
(§4) The isolated liver cells were incubated in a normal incubation medium for 24 h, and then more incubated in 10 mM carbon tetrachloride-containing incubation medium for 1.5 h to induce liver cells to get into the toxicity of carbon tetrachloride [Y. Kiso, Y. Suzuki and H. Hikino, Planta. Med., 49, 222 (1983)].

[2] = test system: liver cell (galactosamine-induced toxicity); test: Protection effect against galactosamine-induced toxicity of liver cell (GPT activity, relative protection); type: cell-based, male Wister rats; conditions: 1.5 mM galactosamine, 14 h, healthy liver cell = 100%, toxicity = 0%; for Relative liver cell protection (%) at 5 µg/mL / Relative liver cell protection (%) at 50 µg/mL: Rattus norvegicus
Source text: To investigate the protection effect of the compounds of the formula 1 of this invention, i. e. 2-oxoasiatic acid, 2-methylasiatic acid, methyl 2α-acetoxyurs-12-en-23-al-3-on-28-oate, tetrahydropyranyl 3β,23-diacetoxyurs-12-en-28-oate, ethoxymethyl 2α-hydroxy-3β,23-isopropylidendioxyurs-12-en-28-oate, methyl 2,3-β-epoxy-12-en-23-carbomethoxyurs-28-oate, methyl 2,3-β-epoxy-12-en-23-benzamidours-28-oate, 1-ethoxyethyl asiatate and 2',3',4',6'-tetra-O-acetylglucosyl 2,3,23-tri-O-acetylurs-28-oate, against galactosamine-induced toxicity of liver cell, the following experiment was performed.
as §1
(§5) The isolated liver cells were incubated in a normal incubation medium for 1.5 h, and then more incubated in 1.5 mM galactosamine-containing incubation medium for 14 h to induce liver cells to get into the toxicity of galactosamine [Y. Kris, M. Tohkin and H. Hikino, J. Nat. Prod., 46, 841 (1983)].
as §2

[3] = test system: liver cell (galactosamine-induced toxicity); test: Concentration dependency of protection effect against galactosamine-induced toxicity of liver cell; type: cell-based, male Wister rats; conditions: for Relative liver cell protection (%) at 1 µM / Relative liver cell protection (%) at 10 µM / Relative liver cell protection (%) at 50 µM / Relative liver cell protection (%) at 100 µM / Relative liver cell protection (%) at 200 µM: Rattus norvegicus
Experimental: as §1, §5, §2
To investigate concentration dependency of the protection effect of the compounds of the formula 1 of this invention, i. e. 2-oxoasiatic acid, 2-methylasiatic acid and methyl 2α-acetoxyurs-12-en-23-al-3-on-28-oate, against galactosamine-induced toxicity of liver cell, the experiment was performed in the same manner as in Experimental example 1, except that the compound concentrations tested were 1, 10, 50, 100 and 200 μM.

[4] = test system: liver cell (carbon tetrachloride-induced toxicity); test: Concentration dependency of protection effect of liver cell against carbon tetrachloride-induced toxicity; type: cell-based, male Wister rats
Experimental: as §1, §2, §3, §4
To investigate the concentration dependency of the protection effect of the compounds of the formula 1 of this invention, i. e. 2-oxoasiatic acid, against carbon tetrachloride-induced toxicity of liver cell, the experiment was performed in the same manner as in Experimental example 2, except that the compound concentrations tested were 1, 10, 50, 100 and 200 μM.

[5] = test system: male ICR mice; test: Safety study through toxicity test in mice by peritoneal injection
Experimental: (§6) Administering 2-oxoasiatic acid of various concentrations to male ICR mice weighing between 20~25 g by peritoneal injection, the toxicity of 2oxoasiatic acid was tested.

[6] = in vivo; conditions: mouse, in vivo, ip
Experimental: as §6

[7] = 5 μg/ml of compound concentration
[8] = 50 μg/ml of compound concentration

Row | Compound | Relative liver cell protection (%) [1, 7] | Relative liver cell protection (%) [1, 8] | Relative liver cell protection (%) [2, 7] | Relative liver cell protection (%) [2, 8] | concentration dependency of protection effect ([3]; 100 and 200 μM) | concentration dependency of protection effect ([3]; range of 1~50 μM) | Relative liver cell protection at 5 µg/mL [1, 7] | Relative liver cell protection at 50 µg/mL [1, 8] | Relative liver cell protection (%) at 5 µg/mL [2, 7] | Relative liver cell protection (%) at 50 µg/mL [2, 8] | also measured
1 | 2',3',4',6'-tetra-O-acetylglucosyl 2,3,23-tri-O-acetylurs-28-oate | 39% | 34% | 79% | 21% |  |  |  |  |  |  | 
2 | 2-methylasiatic acid | 29% | 9% | 43% | 62% | the protection effects of them rapidly decreased | the greater were the protection effects |  |  |  |  | Relative liver cell protection (%) ([3]; compound 1 μM): 31.9%; Relative liver cell protection (%) ([3]; compound 10 μM): 40.3%; Relative liver cell protection (%) ([3]; compound 50 μM): 58.2%; Relative liver cell protection (%) ([3]; compound 100 μM): 43.9%; Relative liver cell protection (%) ([3]; compound 200 μM): 0.0%
3 | CCOC(C)OC(=O)[C@]12CC[C@@H](C)[C@H](C)[C@H]1C1=CC[C@@H]3[C@@]4(C)C[C@@H](O)[C@H](O)[C@@](C)(CO)[C@@H]4CC[C@@]3(C)[C@]1(C)CC2 (stereo partly shown) [1-Ethoxyethyl asiatate, 1-ethoxyethyl asiatate] |  |  |  |  |  |  | 8% | 7% | 66% | 0% | 
4 | C[C@H]1[C@H](C)CC[C@]2(C(=O)O)CC[C@]3(C)C(=CC[C@@H]4[C@@]5(C)CC(=O)[C@H](O)[C@@](C)(CO)[C@@H]5CC[C@]43C)[C@H]12 [2-Oxoasiatic acid, 2-oxoasiatic acid] |  |  |  |  | the protection effects of them rapidly decreased | the greater were the protection effects | 30% | 44% | 15% | 62% | relative liver cell protection at 1 µM ([4]; Rattus norvegicus, compound 1 μM): 1.6%; relative liver cell protection at 10 µM ([4]; Rattus norvegicus, compound 10 μM): 5%; relative liver cell protection at 50 µM ([4]; Rattus norvegicus, compound 50 μM): 3.3%; relative liver cell protection at 100 µM ([4]; Rattus norvegicus, compound 100 μM): 30.9%; relative liver cell protection at 200 µM ([4]; Rattus norvegicus, compound 200 μM): 48.1%; concentration dependency of protection effect ([4]; concentration range of 1~200 μM): the greater was the protection effects; opisthotonus ([5]; male ICR mice, peritoneal injection, fatal dose): opisthotonus was showed at a fatal dose; body weight of surviving mice ([5]; mouse, in vivo): did not change; motor activity ([5]; mouse, in vivo): motor activity was decreased dose-dependently; pilo-erection, tachypnea and convulsion ([5]; mouse, in vivo): induced dose-dependently; recovery of surviving mice ([5]; mouse, in vivo): rapid recovery; type of toxicity ([5]; mouse, in vivo): typical toxicity of central nervous system; LD50 [6]: 750 mg/kg; Relative liver cell protection (%) at 1 µM ([3]; compound 1 μM): 29.8%; Relative liver cell protection (%) at 10 µM ([3]; compound 10 μM): 43.2%; Relative liver cell protection (%) at 50 µM ([3]; compound 50 μM): 50.4%; Relative liver cell protection (%) at 100 µM ([3]; compound 100 μM): 25.3%; Relative liver cell protection (%) at 200 µM ([3]; compound 200 μM): 8.5%
5 | CCOCOC(=O)[C@]12CC[C@@H](C)[C@H](C)[C@H]1C1=CC[C@@H]3[C@@]4(C)C[C@@H](O)[C@@H]5OC(C)(C)OC[C@@]5(C)[C@@H]4CC[C@@]3(C)[C@]1(C)CC2 [ethoxymethyl 2α-hydroxy-3β,23-isopropylidendioxyurs-12-en-28-oate] |  |  |  |  |  |  | 15% | 5% | 66% | 45% | 
6 | COC(=O)[C@]12CC[C@@H](C)[C@H](C)[C@H]1C1=CC[C@@H]3[C@@]4(C)C[C@@H](OC(C)=O)C(=O)[C@@](C)(C=O)[C@@H]4CC[C@@]3(C)[C@]1(C)CC2 [methyl 2α-acetoxyurs-12-en-23-al-3-on-28-oate] |  |  |  |  | the protection effects of them rapidly decreased | the greater were the protection effects | 21% | 0% | 42% | 80% | Relative liver cell protection (%) at 1 µM ([3]; compound 1 μM): 27.4%; Relative liver cell protection (%) at 10 µM ([3]; compound 10 μM): 39%; Relative liver cell protection (%) at 50 µM ([3]; compound 50 μM): 60%; Relative liver cell protection (%) at 100 µM ([3]; compound 100 μM): 33.1%; Relative liver cell protection (%) at 200 µM ([3]; compound 200 μM): 0%
7 | CC(=O)OC[C@@]1(C)[C@@H]2CC[C@]3(C)[C@H](CC=C4[C@@H]5[C@@H](C)[C@H](C)CC[C@]5(C(=O)OC5CCCCO5)CC[C@]43C)[C@@]2(C)CC[C@@H]1OC(C)=O (stereo partly drawn) [tetrahydropyranyl 3β,23-diacetoxyurs-12-en-28-oate] |  |  |  |  |  |  | 42% | 30% | 58% | 66% | 
8 | methyl 2,3-β-epoxy-12-en-23-benzamidours-28-oate | 0% | 23% | 38% | 40% |  |  |  |  |  |  | 
9 | methyl 2,3-β-epoxy-12-en-23-carbomethoxyurs-28-oate | 0% | 0% | 26% | 53% |  |  |  |  |  |  | 
